Laboratory results from ChEMBL document CHEMBL1201862, “PubChem BioAssay data set” (2004).
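96-well plates; 48 h exposure; 5 concentrations. Endpoints by linear interpolation between flanking doses. Not reached: highest tested concentration assigned. GI50 is the concentration that inhibits growth by half.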 Calls of active or inactive are those of the source. Cut-off read from the data, not from the text of the source: active = GI50 up to about 1.1 µM and inactive = higher.

What was measured:
Experiment in all cases: NCI anticancer screen, dose series, 48 h
786-0 = test system: 786-0
A498 = test system: A498
A549 = test system: A549
ACHN = test system: ACHN
CAKI-1 = test system: CAKI-1
CCRF-CEM = test system: CCRF-CEM
COLO 205 = test system: COLO 205
DU-145 = test system: DU-145
EKVX = test system: EKVX
HCC 2998 = test system: HCC 2998
HCT-116 = test system: HCT-116
HCT-15 = test system: HCT-15
HL-60 = test system: HL-60
HOP-62 = test system: HOP-62
HT-29 = test system: HT-29
Hs-578T = test system: Hs-578T
IGROV-1 = test system: IGROV-1
K562 = test system: K562
KM12 = test system: KM12
LOX IMVI = test system: LOX IMVI
M14 = test system: M14
MCF7 = test system: MCF7
MDA-MB-231 = test system: MDA-MB-231
MDA-MB-435 = test system: MDA-MB-435
MDA-N = test system: MDA-N
MOLT-4 = test system: MOLT-4
Malme-3M = test system: Malme-3M
NCI-H226 = test system: NCI-H226
NCI-H23 = test system: NCI-H23
NCI-H460 = test system: NCI-H460
NCI/ADR-RES = test system: NCI/ADR-RES
OVCAR-4 = test system: OVCAR-4
OVCAR-8 = test system: OVCAR-8
PC-3 = test system: PC-3
RPMI-8226 = test system: RPMI-8226
SF-268 = test system: SF-268
SF-295 = test system: SF-295
SF-539 = test system: SF-539
SK-MEL-28 = test system: SK-MEL-28
SK-MEL-2 = test system: SK-MEL-2
SK-MEL-5 = test system: SK-MEL-5
SK-OV-3 = test system: SK-OV-3
SN12C = test system: SN12C
SNB-19 = test system: SNB-19
SNB-75 = test system: SNB-75
SR = test system: SR
SW-620 = test system: SW-620
T47D = test system: T47D
TK-10 = test system: TK-10
U-251 = test system: U-251
UACC-257 = test system: UACC-257
UACC-62 = test system: UACC-62
UO-31 = test system: UO-31
NCI-H522 = test system: NCI-H522
OVCAR-3 = test system: OVCAR-3
OVCAR-5 = test system: OVCAR-5
RXF 393 = test system: RXF 393

Measured: GI50

C=CCOC(=O)Cn1cc(C)c(=O)[nH]c1=O
> 100 µM: HCT-15
inactive: 786-0 > 100 µM | A498 > 100 µM | A549 > 100 µM | ACHN > 100 µM | CAKI-1 > 100 µM | CCRF-CEM > 100 µM | COLO 205 > 100 µM | DU-145 > 100 µM | EKVX > 100 µM | HCC 2998 > 100 µM | HCT-116 > 100 µM | HL-60 > 100 µM | HOP-62 > 100 µM | HT-29 > 100 µM | Hs-578T > 100 µM | IGROV-1 > 100 µM | K562 > 100 µM | KM12 > 100 µM | LOX IMVI > 100 µM | M14 > 100 µM | MCF7 > 100 µM | MDA-MB-231 > 100 µM | MDA-MB-435 > 100 µM | MDA-N > 100 µM | MOLT-4 > 100 µM | Malme-3M > 100 µM | NCI-H226 > 100 µM | NCI-H23 > 100 µM | NCI-H460 > 100 µM | NCI/ADR-RES > 100 µM | OVCAR-4 > 100 µM | OVCAR-8 > 100 µM | PC-3 > 100 µM | RPMI-8226 > 100 µM | SF-268 > 100 µM | SF-295 > 100 µM | SF-539 > 100 µM | SK-MEL-28 > 100 µM | SK-MEL-2 > 100 µM | SK-MEL-5 > 100 µM | SK-OV-3 > 100 µM | SN12C > 100 µM | SNB-19 > 100 µM | SNB-75 > 100 µM | SR > 100 µM | SW-620 > 100 µM | T47D > 100 µM | TK-10 > 100 µM | U-251 > 100 µM | UACC-257 > 100 µM | UACC-62 > 100 µM | UO-31 > 100 µM

CNC(=S)/C(C#N)=C(\N)N1CCCC1
> 100 µM: HCT-15
inactive: 786-0 > 100 µM | A498 > 100 µM | A549 > 100 µM | ACHN > 100 µM | CAKI-1 > 100 µM | CCRF-CEM > 100 µM | COLO 205 > 100 µM | DU-145 > 100 µM | EKVX > 100 µM | HCC 2998 > 100 µM | HCT-116 > 100 µM | HL-60 > 100 µM | HOP-62 > 100 µM | HT-29 > 100 µM | Hs-578T > 100 µM | IGROV-1 > 100 µM | K562 > 100 µM | KM12 > 100 µM | MDA-MB-231 > 100 µM | MDA-MB-435 > 100 µM | MDA-N > 100 µM | MOLT-4 > 100 µM | Malme-3M > 100 µM | NCI-H226 > 100 µM | NCI-H23 > 100 µM | NCI-H460 > 100 µM | NCI-H522 > 100 µM | NCI/ADR-RES > 100 µM | OVCAR-3 > 100 µM | OVCAR-5 > 100 µM | OVCAR-8 > 100 µM | PC-3 > 100 µM | RPMI-8226 > 100 µM | RXF 393 > 100 µM | SF-268 > 100 µM | SF-539 > 100 µM | SK-MEL-28 > 100 µM | SK-MEL-2 > 100 µM | SK-MEL-5 > 100 µM | SK-OV-3 > 100 µM | SN12C > 100 µM | SNB-19 > 100 µM | SR > 100 µM | SW-620 > 100 µM | T47D 57.5 µM | TK-10 > 100 µM | U-251 > 100 µM | UACC-62 > 100 µM | UO-31 > 100 µM
